US20220304286A1, “SYSTEMS AND METHODS FOR IN VIVO DUAL RECOMBINASE-MEDIATED CASSETTE EXCHANGE (dRMCE) AND DISEASE MODELS THEREOF” (CEDARS-SINAI MEDICAL CENTER, priority 2019, published 2022)
“Also recorded” adds a separate entry of the source.

Assays:
MADR K27M tumor cells = test: High-throughput drug testing: live-cell imaging of proliferation, MADR K27M tumor cell lines; format: cell-based, mouse; conditions: imaged for 92 hours, Incucyte phase contrast, 4 biological replicates
Experimental: (§1) In high-throughput drug testing experiments, 10.000 cell from the cell lines generated from tumor dissociation and non-tumor control cells were plated in 96 well plates. 24 hours after the seeding appropriate concentration of each drug (1 μM for Vacquinol-1(Sigma-Aldrich, SML1187) and 0.5 μM for AKT 1/2 kinase inhibitor (Sigma- Aldrich, A6730)) was added to the media and cells were imaged for 92 hours in phase contrast using Incucyte S3 System. Images were collected every 2 hours using Incucyte S3 Software. Cell proliferation images analysis was done with Incucyte S3 software and normalized results presented and analyzed with Graphpad Prism 7.
(§2) Mice were euthanized in CO2 chamber and brains were collected in PBS. Immediately, EGFP+ tissue was micro-dissected under a Revolve Hybrid Microscope (Echo Labs, San Diego, Calif.). If allowed by the size of the tumor, some remains of the brain with residual tumor tissue was fixed in 4% PFA for tissue analysis. Microdissected tissue was mechanically dissociated into <1 mm pieces and further digested with Collagenase IV (Worthington Biochemical, Lakewood, N.J.), and DNAse I (Worthington Biochemical, Lakewood, N.J.). The resultant single cell suspension was filtered through […] cell strainer (Stellar Scientific, Baltimore, Md.) and erythrocytes were lysed with ACK lysis buffer (Thermo Fisher Scientific, Waltham, Mass.). […]

K27M tumor cells = conditions: earlier finding, no details given; cited from earlier work
[1] = tested on: NPCs (tdTomato+ non-tumor control cells); test: High-throughput drug testing: live-cell imaging of proliferation, non-tumor control NPCs; format: cell-based, mouse; conditions: imaged for 92 hours, paired toxicity screening
Experimental: as §1
as §2, with “Mass.). Single cell suspensions were split into 3 parts: First, for scRNAseq or sc-ATACseq experiments, GFP+ cells from single cell samples were FACS sorted (into 1.5 ml tubes for 10× Chromium). A secondary fraction was used for in vitro cell line establishment.” for “Mass.).”

[2] = AKT 1/2 kinase inhibitor 0.5 μM

Compound	cell proliferation of K27M tumor population (MADR K27M tumor cells; Vacquinol-1 1 μM)	toxicity to K27M tumor cells (previously identified) (K27M tumor cells)	cell proliferation of NPCs ([1]; Vacquinol-1 1 μM)	cell proliferation of K27M tumor population (MADR K27M tumor cells; [2])	cell proliferation of NPCs [1, 2]	cell proliferation of NPCs ([1]; AKT 1/2 kinase inhibitor 0.5 μM, listed as Akt1/2 inhibitor)
OC(c1cc(-c2ccc(Cl)cc2)nc2ccccc12)C1CCCCN1 (stereo not shown) [Vacquinol-1]	inhibits K27M growth; also recorded: decreases proliferation preferentially	selectively toxic to K27M tumor cells	does not alter NPC culture growth			
O=c1[nH]c2ccccc2n1C1CCN(Cc2ccc(-c3nc4cc5nc[nH]c5cc4nc3-c3ccccc3)cc2)CC1 [Akt1/2 kinase inhibitor]		selectively toxic to K27M tumor cells		decreases proliferation	decreases proliferation	similarly inhibited NPC proliferation
